Patent publication US12297178B2, “Triazole derivative and use thereof” (GYEONGGIDO BUSINESS & SCIENCE ACCELERATOR, priority 2017, dated 2025)

How the values were obtained:
[1] = tested on: UCP1 (uncoupling protein-1); experiment: Adipocyte differentiation induction experiment: relative UCP1 expression by real time PCR in C3H10T1/2 cells differentiated into white adipocytes; type: cell-based; details: compound 20 μM; for Relative expression level of UCP1 compared to DMSO: relative to DMSO control; for Relative expression level of UCP1 compared to butein: relative to butein 20 μM control
Procedure: C3H10T1/2 cells were commercially purchased, and then differentiated into white adipocytes. The differentiated adipocytes were treated with the compounds obtained in the Preparation Examples at a concentration of 20 μM. A group treated with DMSO at a concentration of 20 μM and a group treated with butein at a concentration of 20 μM were used as a control group, respectively.
While the UCP1 (uncoupling protein-1) is contained in the mitochondria of brown adipocytes or beige adipocytes, it is difficult to find UCP1 in white adipocytes having little mitochondria. Therefore, by measuring the expression level of UCP1, it is possible to determine whether preadipocytes have differentiated into white adipocytes or otherwise brown adipocytes or beige adipocytes. The higher the expression level of UCP1, the more differentiated preadipocytes into brown adipocytes or beige adipocytes.

UCP1 = details: reported in US Patent Publication No. US 2015/0374643 A1; cited from earlier work

Row | SMILES | Relative expression level of UCP1 compared to DMSO [1] | Relative expression level of UCP1 compared to butein [1] | Effect on expression level of UCP1 (UCP1)
1 | OCCOc1ccc(-n2cc(-c3ccc(O)c(O)c3)nn2)cc1 [Compound 15, 4-(1-(4-(2-hydroxyethoxy)phenyl)-1H-1,2,3-triazole-4-yl)benzene-1,2-diol] | 1.6 | 26.9 | 
2 | Oc1ccc(-c2cn(-c3ccc(F)cc3)nn2)cc1O [Compound 3, 4-(1-(4-fluorophenyl)-1H-1,2,3-triazole-4-yl)benzene-1,2-diol] | 12.2 | 34.1 | 
3 | O=C(/C=C/c1ccc(O)c(O)c1)c1ccc(O)cc1O [butein] |  |  | increases the expression level of UCP1
4 | C[NH+](C)CCOc1ccc(-n2cc(-c3ccc(O)c(O)c3)nn2)cc1.[Cl-] [Compound 16, 4-(1-(4-(2-(dimethylamino)ethoxy)phenyl)-1H-1,2,3-triazole-4-yl)benzene-1,2-diol Hydrochloride] | 2.3 | 37.0 | 
5 | Nc1c(-c2ccc(Cl)cc2)nnn1-c1ccc(O)c(O)c1 [Compound 24, 4-(5-amino-4-(4-chlorophenyl)-1H-1,2,3-triazole-1-yl)benzene-1,2-diol] | 10.6 | 29.7 | 
6 | Oc1ccc(-n2cc(-c3ccc(O)c(O)c3)nn2)cc1 [Compound 4, 4-(1-(4-hydroxyphenyl)-1H-1,2,3-triazole-4-yl)benzene-1,2-diol] | 2.1 | 18.6 | 
7 | Oc1ccc(-c2cn(-c3ccc(Cl)cc3)nn2)cc1O [Compound 2, 4-(1-(4-chlorophenyl)-1H-1,2,3-triazole-4-yl)benzene-1,2-diol] | 6.6 | 18.6 | 
8 | Cc1cc(-n2cc(-c3ccc(O)c(O)c3)nn2)ccc1O [Compound 5, 4-(1-(4-hydroxy-3-methylphenyl)-1H-1,2,3-triazole-4-yl)benzene-1.2-diol] | 2.3 | 20.6 | 
9 | COc1ccc(-n2cc(-c3ccc(O)c(O)c3)nn2)c(OC)c1 [Compound 1, 4-(1-(2,4-dimethoxyphenyl)-1H-1,2,3-triazole-4-yl)benzene-1.2-diol] | 3.5 | 12.2 | 
